Test results taken from PubChem BioAssay (NCI).
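Dose response: 5 concentrations. Exposure: 48 h. Format: 96-well plates. Endpoint: linear interpolation; highest concentration if not reached. GI50 = concentration required for 50% inhibition of growth. TGI: total growth inhibition.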

Experiments:
Test in all cases: NCI tumour cell line growth inhibition, 48 h
[1] = test system: RXF 393 renal
[2] = test system: HOP-62 NSCLC
[3] = test system: NCI-H226 lung
[4] = test system: SN12C renal
[5] = test system: UO-31 renal
[6] = test system: HS 578T breast
[7] = test system: ACHN renal
[8] = test system: PC-3 prostate
[9] = test system: U251 CNS
[10] = test system: SK-MEL-28 melanoma
[11] = test system: HCT-116 colon
[12] = test system: SNB-19 CNS
[13] = test system: RPMI-8226 leukemia
[14] = test system: MALME-3M melanoma
[15] = test system: HCC-2998 colon
[16] = test system: COLO 205 colon
[17] = test system: NCI-H522 lung
[18] = test system: M14 melanoma
[19] = test system: CAKI-1 renal
[20] = test system: T-47D breast
[21] = test system: BT-549 breast
[22] = test system: HL-60(TB) leukemia
[23] = test system: TK-10 renal
[24] = test system: LOX IMVI melanoma
[25] = test system: A498 renal
[26] = test system: MDA-MB-435
[27] = test system: MCF7 breast
[28] = test system: NCI-H460 lung
[29] = test system: IGROV1 ovarian
[30] = test system: HOP-92 NSCLC
[31] = test system: SK-OV-3 ovarian
[32] = test system: A549 NSCLC
[33] = test system: SK-MEL-5 melanoma
[34] = test system: SNB-75 CNS
[35] = test system: DU-145 prostate
[36] = test system: OVCAR-5 ovarian
[37] = test system: KM12 colon
[38] = test system: EKVX NSCLC
[39] = test system: NCI/ADR-RES ovarian
[40] = test system: SK-MEL-2 melanoma
[41] = test system: OVCAR-3 ovarian
[42] = test system: CCRF-CEM leukemia
[43] = test system: SW-620 colon
[44] = test system: NCI-H23 lung
[45] = test system: 786-0 renal
[46] = test system: SF-539 CNS
[47] = test system: UACC-62 melanoma
[48] = test system: HT29 colon
[49] = test system: MDA-MB-231 breast
[50] = test system: HCT-15 colon
[51] = test system: SF-268 CNS
[52] = test system: MOLT-4 leukemia
[53] = test system: K-562 leukemia
[54] = test system: SF-295 CNS
[55] = test system: SR leukemia
[56] = test system: OVCAR-8 ovarian
[57] = test system: UACC-257 melanoma
[58] = test system: OVCAR-4 ovarian

CCCCSc1nc(N)c2cn[nH]c2n1
GI50 [1]: 9.25 µM | TGI [1]: > 44 µM | GI50 [2]: 22.5 µM | TGI [2]: 48.8 µM | GI50 [3]: 15.6 µM | TGI [3]: 36.6 µM | GI50 [4]: 12.8 µM | TGI [4]: 28.5 µM | GI50 [5]: 26.2 µM | TGI [5]: > 80.4 µM | GI50 [6]: 22 µM | TGI [6]: 63.2 µM | GI50 [7]: 24.8 µM | TGI [7]: > 76.1 µM | GI50 [8]: 17.9 µM | TGI [8]: 41.8 µM | GI50 [9]: 28.1 µM | TGI [9]: > 64.1 µM | GI50 [10]: 20.3 µM | TGI [10]: 40.3 µM | GI50 [11]: 14.1 µM | TGI [11]: 34.8 µM | GI50 [12]: 37.3 µM | TGI [12]: > 76.8 µM | GI50 [13]: 17.1 µM | TGI [13]: 37.9 µM | GI50 [14]: 24.6 µM | TGI [14]: 42.9 µM | GI50 [15]: 0.22 µM | TGI [15]: 2.26 µM | GI50 [16]: 19.8 µM | TGI [16]: 48.8 µM | GI50 [17]: 20.7 µM | TGI [17]: 49.6 µM | GI50 [18]: 13.3 µM | TGI [18]: 29.5 µM | GI50 [19]: 18.2 µM | TGI [19]: 44.4 µM | GI50 [20]: 8.28 µM | TGI [20]: 52.6 µM | GI50 [21]: 20.1 µM | TGI [21]: 43.2 µM | GI50 [22]: 23.6 µM | TGI [22]: > 100 µM | GI50 [23]: 7.99 µM | TGI [23]: 29.4 µM | GI50 [24]: 29.9 µM | TGI [24]: > 88.6 µM | GI50 [25]: 15.9 µM | TGI [25]: 31 µM | GI50 [26]: 21 µM | TGI [26]: 41.8 µM | GI50 [27]: 23.4 µM | TGI [27]: > 62.5 µM | GI50 [28]: 19.6 µM | TGI [28]: 51.1 µM | GI50 [29]: 29.5 µM | TGI [29]: > 100 µM | TGI [30]: 2.39 µM | GI50 [31]: 37 µM | TGI [31]: > 92.3 µM | GI50 [32]: 27.6 µM | TGI [32]: > 73.6 µM | GI50 [33]: 15.5 µM | TGI [33]: 33.2 µM | GI50 [34]: 26.4 µM | TGI [34]: 69 µM | GI50 [35]: 23.9 µM | TGI [35]: 72 µM | GI50 [36]: 16.6 µM | TGI [36]: 54.3 µM | GI50 [37]: 15 µM | TGI [37]: 30.4 µM | GI50 [38]: 15.6 µM | TGI [38]: 57.3 µM | GI50 [39]: 16.3 µM | TGI [39]: 37.4 µM | GI50 [40]: 22.2 µM | TGI [40]: > 64.6 µM | GI50 [41]: 17.1 µM | TGI [41]: 35.1 µM | GI50 [42]: 23.6 µM | TGI [42]: 68 µM | GI50 [43]: 29.1 µM | TGI [43]: > 70 µM | GI50 [44]: 13.8 µM | TGI [44]: 30.9 µM | GI50 [45]: 21.2 µM | TGI [45]: 57.3 µM | GI50 [46]: 18.3 µM | TGI [46]: 39.1 µM | GI50 [47]: 16.8 µM | TGI [47]: 40.8 µM | GI50 [48]: 25.5 µM | TGI [48]: 62.6 µM | GI50 [49]: 15.5 µM | TGI [49]: 35.2 µM | GI50 [50]: 32.9 µM | TGI [50]: > 100 µM | GI50 [51]: 22.2 µM | TGI [51]: > 59.4 µM | GI50 [52]: 26.3 µM | TGI [52]: > 78 µM | GI50 [53]: 29.7 µM | TGI [53]: > 100 µM | GI50 [54]: 20.8 µM | TGI [54]: 38.8 µM | GI50 [55]: 14.1 µM | TGI [55]: 36.4 µM | GI50 [56]: 23.2 µM | TGI [56]: > 60.4 µM | GI50 [57]: 19.4 µM | TGI [57]: 35 µM | GI50 [58]: 23.6 µM | TGI [58]: 70.4 µM

COc1cc2c(NC3CCN(C(C)C)CC3)nc(C3CCCCC3)nc2cc1OCCCN1CCCC1
GI50 [1]: 1.8 µM | TGI [1]: 4.27 µM | GI50 [2]: 3.22 µM | TGI [2]: 10.1 µM | GI50 [3]: 12.3 µM | TGI [3]: 26.9 µM | GI50 [4]: 12 µM | TGI [4]: 25.1 µM | GI50 [5]: 14.1 µM | TGI [5]: 28.1 µM | GI50 [6]: 4.11 µM | TGI [6]: 22.8 µM | GI50 [7]: 10.4 µM | TGI [7]: 23 µM | GI50 [8]: 7.09 µM | TGI [8]: 22.4 µM | GI50 [9]: 1.97 µM | TGI [9]: 5.11 µM | GI50 [10]: 1.72 µM | TGI [10]: 3.24 µM | GI50 [11]: 3.08 µM | TGI [11]: 14.1 µM | GI50 [12]: 15.4 µM | TGI [12]: 30.3 µM | GI50 [13]: 2.42 µM | TGI [13]: 7.75 µM | GI50 [14]: 1.8 µM | TGI [14]: 3.42 µM | GI50 [15]: 9.03 µM | TGI [15]: 27.4 µM | GI50 [16]: 1.66 µM | TGI [16]: 3.1 µM | GI50 [17]: 2.95 µM | TGI [17]: 8.53 µM | GI50 [18]: 1.71 µM | TGI [18]: 3.26 µM | GI50 [19]: 5.01 µM | TGI [19]: 11.2 µM | GI50 [20]: 2.54 µM | TGI [20]: 7.08 µM | GI50 [21]: 3.85 µM | TGI [21]: 15.3 µM | GI50 [22]: 3.03 µM | TGI [22]: 10.9 µM | GI50 [23]: 2.15 µM | TGI [23]: 5.54 µM | GI50 [24]: 1.75 µM | TGI [24]: 3.95 µM | GI50 [25]: 2.01 µM | TGI [25]: 14.1 µM | GI50 [26]: 1.67 µM | TGI [26]: 3.34 µM | GI50 [27]: 2.64 µM | TGI [27]: 14.4 µM | GI50 [28]: 3.45 µM | TGI [28]: 12.9 µM | GI50 [29]: 12.5 µM | TGI [29]: 26.9 µM | GI50 [30]: 3.48 µM | TGI [30]: 15.6 µM | GI50 [31]: 9.57 µM | TGI [31]: 23.4 µM | GI50 [32]: 3.38 µM | TGI [32]: 13.3 µM | GI50 [33]: 1.68 µM | TGI [33]: 3.11 µM | GI50 [34]: 2.09 µM | TGI [34]: 10.8 µM | GI50 [35]: 4.75 µM | TGI [35]: 17.1 µM | GI50 [36]: 8.87 µM | TGI [36]: 22.2 µM | GI50 [37]: 3.07 µM | TGI [37]: 12.6 µM | GI50 [38]: 8.42 µM | TGI [38]: 21.1 µM | GI50 [39]: 24.9 µM | TGI [39]: > 78.8 µM | GI50 [40]: 2.18 µM | TGI [40]: 4.59 µM | GI50 [41]: 6.98 µM | TGI [41]: 20.4 µM | GI50 [42]: 2.44 µM | TGI [42]: 6.88 µM | GI50 [43]: 2.15 µM | TGI [43]: 6.45 µM | GI50 [44]: 10.8 µM | TGI [44]: 25.5 µM | GI50 [45]: 6.14 µM | TGI [45]: 17.7 µM | GI50 [46]: 1.79 µM | TGI [46]: 3.48 µM | GI50 [47]: 5.47 µM | TGI [47]: 16.8 µM | GI50 [48]: 1.49 µM | TGI [48]: 3.86 µM | GI50 [49]: 2.61 µM | TGI [49]: 9.44 µM | GI50 [50]: 9.82 µM | TGI [50]: 23.9 µM | GI50 [51]: 3.37 µM | TGI [51]: 14.1 µM | GI50 [52]: 3.38 µM | TGI [52]: 11.6 µM | GI50 [53]: 1.99 µM | TGI [53]: 4.55 µM | GI50 [54]: 2.52 µM | TGI [54]: 6.55 µM | GI50 [55]: 3.25 µM | TGI [55]: 10.2 µM | GI50 [56]: 3.97 µM | TGI [56]: 15.6 µM | GI50 [57]: 1.67 µM | TGI [57]: 3.25 µM | GI50 [58]: 5.36 µM | TGI [58]: 15.9 µM
